Data published in patent US20240182531A1, “KV1.3 Blockers” (priority 2021, published 2024).
Like-named read-outs stand apart in the source and are kept apart here. Where a SMILES comes first, the peptide text is derived from it. Bridges are numbered along the chain shown (N, C = ends). [ ]: non-standard residue; d: D form. Nle = CCCC[C@H](N)C(=O)O; Orn = NCCC[C@H](N)C(=O)O; Dab = NCC[C@H](N)C(=O)O

Key:
[1] = target: T1, human Kv1.3 voltage-gated K+ channel (Homo sapiens, UniProt P22001); test: Kv1.3 blocker activity in FLIPR thallium assay; format: cell-based
T1 construct: host or cells: CHO-DUKX
T1 sequence (P22001 whole entry): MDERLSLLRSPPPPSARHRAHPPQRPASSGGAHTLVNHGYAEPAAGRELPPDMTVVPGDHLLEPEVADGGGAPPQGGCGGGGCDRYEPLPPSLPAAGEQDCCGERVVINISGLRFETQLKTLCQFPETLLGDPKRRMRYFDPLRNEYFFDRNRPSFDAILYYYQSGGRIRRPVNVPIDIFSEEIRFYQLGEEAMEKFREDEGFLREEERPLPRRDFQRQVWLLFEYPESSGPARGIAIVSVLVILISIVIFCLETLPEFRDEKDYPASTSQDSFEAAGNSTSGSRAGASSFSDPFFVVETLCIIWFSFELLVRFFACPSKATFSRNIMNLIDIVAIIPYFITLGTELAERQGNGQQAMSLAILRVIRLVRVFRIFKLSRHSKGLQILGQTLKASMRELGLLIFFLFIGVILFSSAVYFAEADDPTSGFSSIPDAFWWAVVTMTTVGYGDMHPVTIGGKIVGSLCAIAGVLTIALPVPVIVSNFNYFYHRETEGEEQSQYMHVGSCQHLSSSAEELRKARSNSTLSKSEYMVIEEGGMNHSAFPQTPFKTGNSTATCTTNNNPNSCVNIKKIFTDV
Description: A human Kv1.3 voltage-gated K+ channel cell line was purchased from Perkin Elmer (#TDS-AX-010-C-1). The cell line is based on CHO-DUKX cells stably transfected with the human Kv1.3 voltage-gated K+ channel.
The cell line was grown in MEMα with nucleotides, GlutaMAX (Gibco #32571028), 10% Foetal Bovine Serum (FBS), 0.4 mg/ml Geneticin, 100 units/ml Penicillin, and 100 μg/ml Streptomycin and seeded at 10.000 cells/well in black poly-D-lysine-coated 96 well plates.
The FluxOR™ Potassium Ion Channel Assay (Invitrogen #F10016) was used to quantitate flux of thallium ions into the cells as a response to Kv1.3 activation with a stimulus buffer causes depolarization of the cell membrane, thereby generating a fluorescent signal, proportional to channel activity. The assay was performed as described by the assay kit manufacturer including a compound pre-incubation step (30 min, 37° C., 5% CO2) in assay buffer containing 0.02% W/v casein from bovine milk (Sigma #C4765) prior to cell membrane depolarization using a final stimuli buffer composition corresponding to 0.2× FluxOR™ chloride-free buffer, 5 mM K2SO4, 1 mM Tl2SO4. The fluorescence responses were recorded and quantified (maximum response at 50 s, 37° C.) using the FLIPR® Tetra High Throughput Screening System (Molecular Devices, Inc.).
IC50 can be regarded as a measure of potency of inhibition for the respective compound. The IC50 value is a measure of the concentration of an inhibitor required to achieve half of that compound's maximal inhibition of ion channel activity in a given assay.

human Kv1.6 = target: T2, human Kv1.6 (Homo sapiens, UniProt P17658); test: cell-based
T2 construct: expressed in transfected cells; host or cells: CHO
T2 sequence (P17658 whole entry): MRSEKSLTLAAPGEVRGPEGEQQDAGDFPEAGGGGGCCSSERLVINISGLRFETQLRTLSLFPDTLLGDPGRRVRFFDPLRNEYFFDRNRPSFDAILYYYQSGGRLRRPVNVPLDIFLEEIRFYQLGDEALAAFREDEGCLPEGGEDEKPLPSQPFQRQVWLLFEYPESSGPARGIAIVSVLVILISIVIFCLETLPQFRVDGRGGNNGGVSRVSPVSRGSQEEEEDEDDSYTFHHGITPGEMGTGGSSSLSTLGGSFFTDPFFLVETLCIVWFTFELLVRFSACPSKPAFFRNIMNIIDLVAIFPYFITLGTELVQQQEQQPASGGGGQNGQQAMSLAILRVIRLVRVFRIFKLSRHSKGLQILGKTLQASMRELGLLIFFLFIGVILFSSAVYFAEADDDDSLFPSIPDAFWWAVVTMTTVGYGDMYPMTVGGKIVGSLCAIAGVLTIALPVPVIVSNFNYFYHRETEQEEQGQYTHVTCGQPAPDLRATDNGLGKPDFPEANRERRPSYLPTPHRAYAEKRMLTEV

human Kv1.1 = target: T3, human Kv1.1 (Homo sapiens, UniProt Q09470); test: cell-based
T3 construct: expressed in transfected cells; host or cells: CHO
T3 sequence (Q09470 whole entry): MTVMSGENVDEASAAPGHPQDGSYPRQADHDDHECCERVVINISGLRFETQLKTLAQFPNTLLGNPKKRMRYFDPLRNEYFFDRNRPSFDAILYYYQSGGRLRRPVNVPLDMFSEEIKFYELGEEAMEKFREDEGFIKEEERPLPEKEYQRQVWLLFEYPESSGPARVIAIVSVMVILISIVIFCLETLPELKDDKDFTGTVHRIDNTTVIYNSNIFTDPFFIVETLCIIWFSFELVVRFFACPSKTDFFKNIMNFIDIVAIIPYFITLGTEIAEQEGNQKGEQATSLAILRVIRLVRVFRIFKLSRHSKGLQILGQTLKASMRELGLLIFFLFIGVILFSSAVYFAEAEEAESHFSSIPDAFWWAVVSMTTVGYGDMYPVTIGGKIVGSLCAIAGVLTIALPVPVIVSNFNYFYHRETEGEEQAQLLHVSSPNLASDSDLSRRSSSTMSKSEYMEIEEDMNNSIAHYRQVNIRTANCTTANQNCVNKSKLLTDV

Rat whole blood = Rat whole blood (Rattus norvegicus, UniProt P15384); format: cell-based
Rat whole blood, sequence (P15384 whole entry): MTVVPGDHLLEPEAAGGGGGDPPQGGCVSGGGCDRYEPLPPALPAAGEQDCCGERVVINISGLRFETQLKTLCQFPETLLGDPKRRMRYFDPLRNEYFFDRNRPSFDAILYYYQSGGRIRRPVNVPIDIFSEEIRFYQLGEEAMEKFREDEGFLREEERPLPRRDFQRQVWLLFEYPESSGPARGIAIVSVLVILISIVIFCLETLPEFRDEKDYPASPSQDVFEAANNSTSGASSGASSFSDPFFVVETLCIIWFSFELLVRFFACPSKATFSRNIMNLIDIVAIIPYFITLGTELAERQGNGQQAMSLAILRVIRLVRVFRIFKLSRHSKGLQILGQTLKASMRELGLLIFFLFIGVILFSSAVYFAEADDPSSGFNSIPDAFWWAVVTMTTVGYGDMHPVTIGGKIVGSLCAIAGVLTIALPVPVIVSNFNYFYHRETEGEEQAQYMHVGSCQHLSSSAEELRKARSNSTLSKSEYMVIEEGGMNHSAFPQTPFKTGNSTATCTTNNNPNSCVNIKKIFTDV

human Kv1.2 = target: T4, human Kv1.2 (Homo sapiens, UniProt P16389); test: cell-based
T4 construct: expressed in transfected cells; host or cells: CHO
T4 sequence (P16389 whole entry): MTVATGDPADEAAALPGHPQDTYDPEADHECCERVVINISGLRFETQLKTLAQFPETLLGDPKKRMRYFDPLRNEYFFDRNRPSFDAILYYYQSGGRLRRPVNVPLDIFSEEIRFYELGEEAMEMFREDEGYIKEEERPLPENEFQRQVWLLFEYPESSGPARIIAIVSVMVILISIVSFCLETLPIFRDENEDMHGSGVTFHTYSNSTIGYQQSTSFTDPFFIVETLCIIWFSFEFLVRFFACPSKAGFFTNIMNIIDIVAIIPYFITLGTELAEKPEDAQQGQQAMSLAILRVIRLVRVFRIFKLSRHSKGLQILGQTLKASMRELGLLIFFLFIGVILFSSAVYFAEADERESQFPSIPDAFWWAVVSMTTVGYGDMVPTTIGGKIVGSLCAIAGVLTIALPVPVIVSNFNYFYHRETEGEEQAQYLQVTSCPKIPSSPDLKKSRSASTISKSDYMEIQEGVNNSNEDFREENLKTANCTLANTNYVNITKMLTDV

[2] = ratio of patch clamp IC50 values
[3] = IL-17A release, thapsigargin, 24 Hr, at least 2 replicates

SMILES	IC50 [1] [nM]	Selectivity ratio Kv1.6/Kv1.3 (human Kv1.6; [2])	Selectivity ratio Kv1.1/Kv1.3 (human Kv1.1; [2])	IC50 (Rat whole blood; [3]) [nM]	Selectivity ratio Kv1.2/Kv1.3 (human Kv1.2; [2])	also measured
CCCC[C@H](NC(=O)[C@@H]1CCCN1)C(=O)N[C@@H](CCC(=O)O)C(=O)N[C@@H](CCCC)C(=O)N[C@@H](CCCNC(=N)N)C(=O)N[C@H]1CSSC[C@@H]2NC(=O)[C@H](CCCCN)NC(=O)CNC(=O)[C@H](Cc3ccccc3)NC(=O)[C@H]([C@@H](C)CC)NC(=O)[C@H](CO)NC(=O)CNC(=O)[C@H]([C@@H](C)CC)NC(=O)[C@H](C)NC(=O)[C@H](C)NC(=O)[C@H](CC(C)C)NC(=O)[C@@H]3CSSC[C@@H](C(=O)N[C@@H](Cc4ccc(O)cc4)C(=O)N4CCC[C@H]4C(=O)N[C@@H](CCCNC(=N)N)C(N)=O)NC(=O)[C@H](CCCCN)NC(=O)[C@H](CSSC[C@H](NC(=O)[C@H](CCC(=O)O)NC(=O)[C@H](C(C)C)NC(=O)[C@H](CO)NC(=O)[C@H](C)NC(=O)[C@H](CCN)NC1=O)C(=O)N[C@@H](C)C(=O)N[C@@H](CCC(N)=O)C(=O)N[C@@H](CO)C(=O)N3)NC(=O)[C@H](CCCCN)NC(=O)CNC(=O)[C@H](CC(N)=O)NC(=O)[C@H](CCCC)NC2=O [compound 10] (H-P[Nle]E[Nle]RC[Dab]ASVECAQSCLAAIGSIFGKC[Nle]NGKCKCYPR-NH2; disulfide 6-27, 12-32, 16-34)	0.33					
CCCC[C@H](NC(=O)[C@@H]1CCCN1)C(=O)N[C@@H](CCC(=O)O)C(=O)N[C@@H](CCCC)C(=O)N[C@@H](CCCNC(=N)N)C(=O)N[C@H]1CSSC[C@@H]2NC(=O)[C@H](CCCCN)NC(=O)CNC(=O)[C@H](Cc3ccccc3)NC(=O)[C@H]([C@@H](C)CC)NC(=O)[C@H](CO)NC(=O)CNC(=O)[C@H]([C@@H](C)CC)NC(=O)[C@H](C)NC(=O)[C@H](C)NC(=O)[C@H](CC(C)C)NC(=O)[C@@H]3CSSC[C@@H](C(=O)N[C@@H](Cc4ccc(O)cc4)C(=O)N4CCC[C@H]4C(=O)N[C@@H](CCCNC(=N)N)C(=O)O)NC(=O)[C@H](CCCCN)NC(=O)[C@H](CSSC[C@H](NC(=O)[C@H](CCC(=O)O)NC(=O)[C@H](C(C)C)NC(=O)[C@H](CO)NC(=O)[C@H](C)NC(=O)[C@H](CCCN)NC1=O)C(=O)N[C@@H](CCCCN)C(=O)N[C@@H](CCC(N)=O)C(=O)N[C@@H](CCCCN)C(=O)N3)NC(=O)[C@H](CCCCN)NC(=O)[C@H](CCCCN)NC(=O)[C@H](CC(N)=O)NC(=O)[C@H](CCCC)NC2=O [compound 2] (H-P[Nle]E[Nle]RC[Orn]ASVECKQKCLAAIGSIFGKC[Nle]NKKCKCYPR-OH; disulfide 6-27, 12-32, 16-34)	0.12					
CCCC[C@H](NC(=O)[C@@H]1CCCN1)C(=O)N[C@@H](CCC(=O)O)C(=O)N[C@@H](CCCC)C(=O)N[C@@H](CCCNC(=N)N)C(=O)N[C@H]1CSSC[C@@H]2NC(=O)[C@H](CCCCN)NC(=O)CNC(=O)[C@H](Cc3ccccc3)NC(=O)[C@H]([C@@H](C)CC)NC(=O)[C@H](CO)NC(=O)CNC(=O)[C@H]([C@@H](C)CC)NC(=O)[C@H](C)NC(=O)[C@H](C)NC(=O)[C@H](CC(C)C)NC(=O)[C@@H]3CSSC[C@@H](C(=O)N[C@@H](Cc4ccc(O)cc4)C(=O)N4CCC[C@H]4C(=O)N[C@@H](CCCNC(=N)N)C(N)=O)NC(=O)[C@H](CCCCN)NC(=O)[C@H](CSSC[C@H](NC(=O)[C@H](CCC(=O)O)NC(=O)[C@H](CCCNC(=N)N)NC(=O)[C@H](CO)NC(=O)[C@H](C)NC(=O)[C@H](CO)NC1=O)C(=O)N[C@@H](C)C(=O)N[C@@H](CCC(N)=O)C(=O)N[C@@H](CO)C(=O)N3)NC(=O)[C@H](CCCCN)NC(=O)CNC(=O)[C@H](CC(N)=O)NC(=O)[C@H](CCCC)NC2=O [compound 12] (H-P[Nle]E[Nle]RCSASRECAQSCLAAIGSIFGKC[Nle]NGKCKCYPR-NH2; disulfide 6-27, 12-32, 16-34)	0.45					
CCCC[C@@H]1NC(=O)[C@@H]2CSSC[C@H](NC(=O)[C@H](CCCNC(=N)N)NC(=O)[C@H](CCCC)NC(=O)[C@H](CCC(=O)O)NC(=O)[C@@H](NC(=O)[C@@H]3CCCN3)[C@@H](C)CC)C(=O)N[C@@H](CO)C(=O)N[C@@H](C)C(=O)N[C@@H](CO)C(=O)N[C@@H](C(C)C)C(=O)N[C@@H](CCC(=O)O)C(=O)N[C@H]3CSSC[C@H](NC(=O)[C@H](CCCCN)NC(=O)[C@H](CCCCN)NC(=O)[C@H](CC(N)=O)NC1=O)C(=O)N[C@@H](CCCCN)C(=O)N[C@H](C(=O)N[C@@H](Cc1ccc(O)cc1)C(=O)N1CCC[C@H]1C(=O)N[C@@H](CCCNC(=N)N)C(=O)O)CSSC[C@H](NC(=O)[C@H](CCCCN)NC(=O)[C@H](CCC(N)=O)NC(=O)[C@H](CCCCN)NC3=O)C(=O)N[C@@H](CC(C)C)C(=O)N[C@@H](CCCCN)C(=O)N[C@@H](C)C(=O)N[C@@H]([C@@H](C)CC)C(=O)NCC(=O)N[C@@H](CO)C(=O)N[C@@H]([C@@H](C)CC)C(=O)N[C@@H](Cc1ccccc1)C(=O)NCC(=O)N[C@@H](CCCCN)C(=O)N2 [compound 92] (H-PIE[Nle]RCSASVECKQKCLKAIGSIFGKC[Nle]NKKCKCYPR-OH; disulfide 6-27, 12-32, 16-34)						Selectivity ratio Kv1.6/Kv1.3 (human Kv1.6): >7800; Selectivity ratio Kv1.1/Kv1.3 (human Kv1.1): >7800; IC50 (Rat whole blood): 1.8 nM; Selectivity ratio Kv1.2/Kv1.3 (human Kv1.2): 4561
CC[C@H](C)[C@@H]1NC(=O)[C@H](C)NC(=O)[C@H](CCCCN)NC(=O)[C@H](CC(C)C)NC(=O)[C@@H]2CSSC[C@@H](C(=O)N[C@@H](Cc3ccc(O)cc3)C(=O)N3CCC[C@H]3C(=O)N[C@@H](CCCNC(=N)N)C(=O)O)NC(=O)[C@H](CCCCN)NC(=O)[C@@H]3CSSC[C@H](NC(=O)[C@H](CCC(=O)O)NC(=O)[C@H](C(C)C)NC(=O)[C@H](CO)NC(=O)[C@H](C)NC(=O)[C@H](CO)NC(=O)[C@@H](N)CSSC[C@H](NC(=O)[C@H](CCCCN)NC(=O)CNC(=O)[C@H](Cc4ccccc4)NC(=O)[C@H]([C@@H](C)CC)NC(=O)[C@H](CO)NC(=O)CNC1=O)C(=O)N[C@@H](CCSC)C(=O)N[C@@H](CC(N)=O)C(=O)N[C@@H](CCCCN)C(=O)N[C@@H](CCCCN)C(=O)N3)C(=O)N[C@@H](CCCCN)C(=O)N[C@@H](CCC(N)=O)C(=O)N[C@@H](CCCCN)C(=O)N2 [compound 106] (H-CSASVECKQKCLKAIGSIFGKCMNKKCKCYPR-OH; disulfide 1-22, 7-27, 11-29)		>1400	>1400	1.9	878	
CC[C@H](C)[C@@H]1NC(=O)[C@H](C)NC(=O)[C@H](CCCCN)NC(=O)[C@H](CC(C)C)NC(=O)[C@@H]2CSSC[C@@H](C(=O)N[C@@H](Cc3ccc(O)cc3)C(=O)N3CCC[C@H]3C(=O)N[C@@H](CCCNC(=N)N)C(N)=O)NC(=O)[C@H](CCCCN)NC(=O)[C@@H]3CSSC[C@H](NC(=O)[C@H](CCC(=O)O)NC(=O)[C@H](C(C)C)NC(=O)[C@H](CO)NC(=O)[C@H](C)NC(=O)[C@H](CO)NC(=O)[C@@H](NC(=O)[C@H](CCCNC(=N)N)NC(=O)[C@H](CCSC)NC(=O)[C@H](CC(=O)O)NC(=O)[C@H](CCSC)NC(=O)[C@@H](N)CC(N)=O)CSSC[C@H](NC(=O)[C@H](CCCCN)NC(=O)CNC(=O)[C@H](Cc4ccccc4)NC(=O)[C@H]([C@@H](C)CC)NC(=O)[C@H](CO)NC(=O)[C@H](CCCNC(=N)N)NC1=O)C(=O)N[C@@H](CCSC)C(=O)N[C@@H](CC(N)=O)C(=O)N[C@@H](CCCCN)C(=O)N[C@@H](CCCCN)C(=O)N3)C(=O)N[C@@H](CCCCN)C(=O)N[C@@H](CCC(N)=O)C(=O)N[C@@H](CCCCN)C(=O)N2 [compound 26] (H-NMDMRCSASVECKQKCLKAIRSIFGKCMNKKCKCYPR-NH2; disulfide 6-27, 12-32, 16-34)		2851	>13700	0.82	259	
CCCC[C@H](NC(=O)[C@H](CC(=O)O)NC(=O)[C@H](CCCC)NC(=O)[C@@H](N)CO)C(=O)N[C@@H](CCCNC(=N)N)C(=O)N[C@H]1CSSC[C@@H]2NC(=O)[C@H](CCCCN)NC(=O)CNC(=O)[C@H](Cc3ccccc3)NC(=O)[C@H]([C@@H](C)CC)NC(=O)[C@H](CO)NC(=O)CNC(=O)[C@H]([C@@H](C)CC)NC(=O)[C@H](C)NC(=O)[C@H](CCCCN)NC(=O)[C@H](CC(C)C)NC(=O)[C@@H]3CSSC[C@@H](C(=O)N[C@@H](Cc4ccc(O)cc4)C(=O)N4CCC[C@H]4C(=O)N[C@@H](CCCNC(=N)N)C(N)=O)NC(=O)[C@H](CCCCN)NC(=O)[C@H](CSSC[C@H](NC(=O)[C@H](CCC(=O)O)NC(=O)[C@H](C(C)C)NC(=O)[C@H](CO)NC(=O)[C@H](C)NC(=O)[C@H](CO)NC1=O)C(=O)NCC(=O)N[C@@H](CCC(N)=O)C(=O)N[C@@H](CCCCN)C(=O)N3)NC(=O)[C@H](CCCCN)NC(=O)[C@H](CCCCN)NC(=O)[C@H](CC(N)=O)NC(=O)[C@H](CCSC)NC2=O [compound 71] (H-S[Nle]D[Nle]RCSASVECGQKCLKAIGSIFGKCMNKKCKCYPR-NH2; disulfide 6-27, 12-32, 16-34)		>27700	>27700	0.3	3438	
